From patent US9044491B2, “Method for improving blood flow using stilbenoid derivatives” (The Board of Trustees of the University of Arkansas, priority 2010, dated 2015)

Tests used:
Type in all cases: in vivo, mouse
[1] = system: cecal ligation and puncture model (CLP) of sepsis-induced renal injury; assay: Renal microcirculation after CLP by intravital video microscopy; conditions: for capillary perfusion / RBC velocity / volumetric blood flow: 18 hours after CLP
Experimental: Control (sham) mice underwent surgery but not CLP. Fresh solutions of tRes were prepared in dimethyl sulfoxide as the vehicle (veh) and diluted in normal saline before use. Dextran and […] were administered to the penile vein to visualize the capillary vascular space and detect RNS generation, respectively. The left kidney was exposed by a flank incision and positioned on a glass stage with a fluorescent microscope equipped with an Axiocam HSm camera. Intravital Video Microscopy (IVVM) of 10 s intervals at 200× magnification were acquired from randomly selected, non-overlapping fields of view. Capillaries were randomly selected for the 10 sec videos and categorized as “continuous flow” where red blood cell (RBC) movement was continuous; “intermittent flow” where RBC movement stopped or reversed; or “no flow” where no RBC movement was detected as shown in FIG. 8. RBC velocity was calculated in continuously flowing capillaries by measuring the distance traveled by a single RBC over time, expressed in μm/s.

[2] = system: cecal ligation and puncture model (CLP); assay: RNS generation in renal tubules after CLP (rhodamine IVVM, anti-nitrotyrosine staining); conditions: for rhodamine fluorescence (RNS generation in renal tubules): 18 hours after CLP
Experimental: The reactive nitrogen species peroxynitrite preferentially oxidizes DHR to fluorescent rhodamine that is visualized at 535 nm excitation and 590 nm emission. Still images exposed for 500 ms were captured from fields of view used to determine capillary perfusion. Fluorescence intensity was measured by ImageJ (National Institutes of Health, Bethesda, Md.) after first subtracting background fluorescence intensity. Representative images of fluorescence are shown in FIG. 10, panels (A)-(C), and the quantification of fluorescence is shown in FIG. 10 panel D. Data are expressed as arbitrary units/μg. CLP increased the generation of RNS in the renal tubules compared to Control (Sham). […] Antigens were unmasked using 10 mM citrate (pH 6.0) and 95° C. for 30 min. Gill's hematoxylin II was used as a counterstain. […] FIG. 12 (E)-(G) show nitrotyrosine staining. After CLP, nitrotyrosine was intense in renal tubules but not in glomeruli. Two doses of tRes blocked formation of nitrotyrosine adducts.

CLP mice = assay: Serum creatinine and blood urea nitrogen after CLP
Experimental: Acute Kidney Injury (AKI) is accompanied by elevated blood urea nitrogen levels, elevated creatinine levels, and low blood pressure. Serum creatinine and blood urea nitrogen (BUN) were measured using the QuantiChrom® Creatinine Assay kit and Urea Assay Kit (BioAssay Systems, Hayward Calif.).

[3] = at 6 hours after CLP, administration at 5.5 hours
[4] = 10 mg/kg administered 6 hours after CLP surgery, single dose

For `Oc1ccc(/C=C/c2cc(O)cc(O)c2)cc1` [tRes, trans-resveratrol], the capillary perfusion ([1]; 10 mg/kg at 6 hours and second dose at 12 hours) was “prevented the change”, the RBC velocity ([1]; additional dose at 12 hours) was “complete restoration” and the volumetric blood flow ([1]; additional dose at 12 hours) was “complete restoration”. The RBC velocity ([1]; single dose) was “did not improve”, the volumetric blood flow ([1]; single dose) was “did not improve” and the capillary perfusion ([1]; single dose 10 mg/kg at 6 hours) was “unable to maintain perfusion”. The “mean RBC velocity” value ([1]; at 6 h after CLP) was “improved”, the “renal capillary volumetric blood flow” value ([1]; at 6 h after CLP) was “improved” and the “most efficacious dose for capillary perfusion” value [1, 3] was 10 mg/kg. The “renal cortical peritubular capillary perfusion” value [1, 3] was “improved perfusion in a dose dependent manner”, the “rhodamine fluorescence (RNS generation in renal tubules)” value ([2]; second dose at 12 hours) was “completely blocked” and the “rhodamine fluorescence (RNS generation in renal tubules)” value ([2]; single dose at 6 hours) was “partially, but significantly reduced”. The “formation of nitrotyrosine adducts” value ([2]; CLP, two doses) was “blocked”, the BUN levels (CLP mice; [4]) was “not” and the serum creatinine levels (CLP mice; [4]) was “significantly reduced”. The BUN levels (CLP mice; additional dose given at 12 h) was “significant reduction” and the serum creatinine levels (CLP mice; additional dose given at 12 h) was “significant reduction”.
